# Data as given in article PMC5064002, “Sintokamide A Is a Novel Antagonist of Androgen Receptor That Uniquely Binds Activation Function-1 in Its Amino-terminal Domain” (The Journal of Biological Chemistry, 2016).
# Assays:
# Assay type in all cases: cell-based
# [1] = system: LNCaP95 cells; assay: Cell proliferation (BrdU incorporation), LNCaP95; conditions: 48 h
# Procedure: (§1) Cells were pulse-labeled with 10 μM BrdU for 2 h. Cells were fixed, and BrdU-labeled cells were identified with anti-BrdU-peroxidase (Roche Applied Science). BrdU incorporation was measured at 570 nm using a VersaMax ELISA microplate reader (Molecular Devices). At least three independent experiments with six technical replicates were analyzed, and average values are indicated.
# [2] = biological target: T1, AR interaction with STAT3 (Homo sapiens, UniProt P10275, T878A); assay: Co-immunoprecipitation of AR with STAT3 in LNCaP cells; conditions: EPI-002 35 μM or SINT1 20 μM, 50 ng/ml IL-6 6 h
# T1 construct: endogenous in cells; host or cells: LNCaP
# T1 sequence (P10275 1-920 T878A): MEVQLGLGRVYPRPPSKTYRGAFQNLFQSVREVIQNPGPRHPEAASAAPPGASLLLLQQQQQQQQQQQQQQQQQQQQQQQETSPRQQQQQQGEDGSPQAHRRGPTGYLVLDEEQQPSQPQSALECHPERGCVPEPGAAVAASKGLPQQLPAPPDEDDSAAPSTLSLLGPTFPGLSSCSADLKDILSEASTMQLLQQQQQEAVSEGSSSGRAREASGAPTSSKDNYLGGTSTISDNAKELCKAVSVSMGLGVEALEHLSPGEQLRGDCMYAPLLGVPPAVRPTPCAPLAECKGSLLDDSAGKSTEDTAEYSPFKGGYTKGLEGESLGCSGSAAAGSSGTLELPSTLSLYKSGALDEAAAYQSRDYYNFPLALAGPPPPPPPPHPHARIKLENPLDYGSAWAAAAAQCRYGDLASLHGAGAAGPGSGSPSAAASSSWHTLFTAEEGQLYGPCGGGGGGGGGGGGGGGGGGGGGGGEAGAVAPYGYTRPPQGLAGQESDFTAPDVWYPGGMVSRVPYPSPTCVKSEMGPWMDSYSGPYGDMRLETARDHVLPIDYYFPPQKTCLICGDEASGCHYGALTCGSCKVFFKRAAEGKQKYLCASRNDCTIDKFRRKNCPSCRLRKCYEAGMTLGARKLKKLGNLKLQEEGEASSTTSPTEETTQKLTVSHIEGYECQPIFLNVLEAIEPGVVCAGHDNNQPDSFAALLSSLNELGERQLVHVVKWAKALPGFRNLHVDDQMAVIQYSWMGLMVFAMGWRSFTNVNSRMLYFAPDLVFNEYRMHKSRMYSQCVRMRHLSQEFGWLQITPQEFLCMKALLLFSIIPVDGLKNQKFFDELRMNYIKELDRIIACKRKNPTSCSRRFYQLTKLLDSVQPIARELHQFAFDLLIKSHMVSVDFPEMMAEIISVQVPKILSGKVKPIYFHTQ
# Procedure: LNCaP cells were preincubated with EPI-002 (35 μM), SINT1 (20 μM), or DMSO (vehicle control) for 1 h before treatment for 6 h with 50 ng/ml IL-6. Whole cell lysates were prepared from harvested cells in modified radioimmune precipitation assay buffer. Cell lysates were precleared with 2 μg of normal mouse IgG and 20 μl of Protein A/G PLUS-agarose beads (Santa Cruz Biotechnology) to remove nonspecific bead binding. Total STAT3 was immunoprecipitated with 10 μg of antibody against STAT3 (124H6) or 10 μg of normal mouse IgG as a negative control followed by probing the immunoblot with anti-AR antibody (AR-N20; 1:1000) and anti-STAT3 antibody (124H6; 1:1000) and normalizing to levels of β-actin (1:10,000) as loading controls. The input lanes were loaded with 5 μg of the starting cell lysate. The relative density of AR for each immunoprecipitated sample was quantified by ImageJ software and normalized to levels of STAT3 pulled down.
# [3] = system: LNCaP cells; assay: Cell proliferation (BrdU incorporation), LNCaP; conditions: 0.1 nM R1881, 72 h
# Procedure: as §1
# [4] = biological target: T2, AR NTD (Homo sapiens, UniProt P10275); assay: Transactivation of AR NTD (AR-(1–558)-Gal4 DBD, 5xGal4UAS-TATA-luciferase) in LNCaP cells; conditions: for IL-6-induced transactivation of AR NTD: 20 μM SINT1 or 25 μM EPI-002, 50 ng/ml IL-6 24 h; for forskolin-induced transactivation of AR NTD: 20 μM SINT1 or 25 μM EPI-002, 50 μM forskolin 24 h
# T2 construct: expression vector for AR NTD encoding amino acids 1–558 fused to the Gal4 DBD; expressed in transfected cells; host or cells: LNCaP
# T2 sequence (P10275 1-558): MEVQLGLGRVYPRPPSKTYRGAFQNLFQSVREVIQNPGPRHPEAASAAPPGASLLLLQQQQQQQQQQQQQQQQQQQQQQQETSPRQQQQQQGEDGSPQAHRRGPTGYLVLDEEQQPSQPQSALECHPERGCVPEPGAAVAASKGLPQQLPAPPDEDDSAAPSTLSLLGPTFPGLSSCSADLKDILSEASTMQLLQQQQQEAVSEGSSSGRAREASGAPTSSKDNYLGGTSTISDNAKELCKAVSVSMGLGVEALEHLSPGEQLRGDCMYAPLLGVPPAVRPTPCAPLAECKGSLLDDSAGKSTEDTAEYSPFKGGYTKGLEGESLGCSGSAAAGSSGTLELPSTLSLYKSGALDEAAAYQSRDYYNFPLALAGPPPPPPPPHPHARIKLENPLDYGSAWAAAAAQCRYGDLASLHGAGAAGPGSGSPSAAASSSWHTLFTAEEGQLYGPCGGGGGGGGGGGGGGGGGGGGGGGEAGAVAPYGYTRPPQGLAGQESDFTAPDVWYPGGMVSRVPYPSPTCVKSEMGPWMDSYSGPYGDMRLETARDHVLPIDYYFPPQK
# Procedure: LNCaP cells were co-transfected with 5xGal4UAS-TATA-luciferase and AR-(1–558)-Gal4 DBD prior to pretreatment with 20 μM SINT1 or 25 μM EPI-002, which binds to the AR NTD to block AR transcriptional activity. NTD activity was induced by incubation with 50 μM forskolin or 50 ng/ml IL-6 for an additional 24 h ([7], [8]).
# To test whether SINT1 can inhibit transactivation of AR NTD, LNCaP cells were co-transfected with an expression vector for AR NTD encoding amino acids 1–558 fused to the Gal4 DBD and a reporter construct with Gal4 DBD-binding sites. Transactivation of AR NTD is induced by forskolin or IL-6 ([8], [14]).
SMILES,proliferation of LNCaP95 cells [1],interaction between AR and STAT3 [2],androgen-induced proliferation of LNCaP cells [3],IL-6-induced transactivation of AR NTD [4],forskolin-induced transactivation of AR NTD [4]
"CC(C)(c1ccc(OC[C@H](O)CO)cc1)c1ccc(OC[C@H](O)CCl)cc1 [EPI-002, reference compound]",inhibited,inhibited interaction,inhibited,potent inhibitor,significantly inhibited
"CCC(=O)NC(CC(C)C(Cl)(Cl)Cl)C(=O)N1C(=O)C=C(OC)C1CC(C)C(Cl)Cl (stereo not shown) [SINT1, Sintokamide A]",inhibited,did not,inhibited,no significant effect,significantly inhibited
